Here are results for two molecules from US11078189B2, “Pharmaceutical compounds” (REVIRAL LIMITED, priority 2017, dated 2021).

The IC50 is the midpoint of a concentration-inhibition curve. Read a high IC50 as weaker potency in that assay. For orientation: IC90 means the point of the concentration-response curve where the effect stands at 90%. A low value points to an effect from little substance. Broadly, the Papp A→B is how fast a substance crosses the layer from the apical side. A lower Papp A→B goes with poor permeation. As a reminder, the Papp B→A is the apparent permeability from the basolateral to the apical side of a cell layer.

The structures appear in SMILES notation.

Data set [1] has as its system RSV A2 VR-1540. The data set can be described thus: RSV plaque reduction assay. Particulars: human respiratory syncytial virus; Strain A2; n = 1; HEp-2 cells. It is filed as cell-based. The method, then: HEp-2 cells (ATCC, CCL23) were passaged in flasks and seeded in 96-well plates in DMEM containing antibiotics and supplemented with 10% FBS. During inoculation and subsequent incubation, cells were cultured in DMEM containing 3% FBS. 100 plaque forming unit (PFU)/well of RSV (RSV A2 VR-1540) was mixed with ten serial dilutions of compound. Subsequently, 100 μL of the virus/compound mixtures was added to confluent HEp-2 cell monolayers. The cells and virus/compound mixtures were incubated at 35° C. in a humidified 5% CO2 incubator for 1 day.
Cells were washed twice with PBS before adding 50% v/v EtOH/MeOH, and then stored at −20° C. On the day of the staining, fixative was first removed from the plates. Plates were washed 3× with PBS. A pre-titrated amount of the primary antibody was added in 60 μL PBS/2% milk powder, and plates incubated for 1 h at […]. The plates were washed 3× with PBS/0.05% Tween20 before addition of goat anti-mouse horse radish peroxidase in 60 μL PBS/2% milk powder, and incubated for 1 h at rt. Following three wash steps with PBS/0.05% Tween20, 60 μL ready-to-use TrueBlue was added and plates were incubated at rt for 10-15 min before adding MilliQ water. Plates were washed once with water, incubated for 30-60 min and after removal of water, air-dried in the dark.
Plates were scanned and analyzed using the Immunospot S6 UV analyzer, which is equipped with BioSpot analysis software for counting immunostained plaques (virospots). Plaque counts were used to calculate % infection relative to the mean of the spot count (SC) in the virus control wells for RSV. IC50/IC90 values were calculated as 50% or 90% reduction in signal, respectively, by interpolation of inhibition curves fitted with a 4-parameter nonlinear regression with a variable slope in GraphPad 5.0 (Prism).
On the technique in general: Plaques are areas of infected cells; plaque reduction assays count them against a control.

A short description of data set [2]: Liver microsomal stability, dog. It is filed as in vitro ADME. Particulars: pooled liver microsomes, pH 7.4; dog liver microsomes 0.5 mg/mL; 3 μM compound; read-out: Liver Microsoinal Stability t1/2, dog. The method, then:
Pooled liver microsomes are purchased from a reputable commercial supplier and stored at −80° C. prior to use. Microsomes (final protein concentration 0.5 mg/mL), 0.1 M phosphate buffer pH 7.4 and test compound (final substrate concentration 3 μM; final DMSO concentration 0.25%) are pre-incubated at 37° C. prior to the addition of NADPH (final concentration 1 mM) to initiate the reaction. The final incubation volume is 50 uL. A control incubation is included for each compound tested where 0.1 M phosphate buffer pH 7.4 is added instead of NADPH (minus NADPH). Two control compounds are included with each species. All incubations are performed singularly for each test compound. Each compound is incubated for 0, 5, 15, 30 and 45 min. The control (minus NADPH) is incubated for 45 min only. The reactions are stopped by transferring 20 μL of incubate to 60 μL MeOH at the appropriate time points. The termination plates are centrifuged at 2,500 rpm for 20 min at 4° C. to precipitate the protein. Following protein precipitation, the sample supernatants are combined in cassettes of up to 4 compounds, internal standard is added and samples analysed by LC-MS/MS. From a plot of In peak area ratio (compound peak area/internal standard peak area) against time, the gradient of the line is determined. Subsequently, half-life and intrinsic clearance are calculated.
On the technique in general: Microsomes from liver hold many membrane-bound enzymes, among them those of drug oxidation.

Data set [3] deals with MDR1. The data set can be described thus: in vitro. The data set is classed as in vitro ADME. Conditions: dog, MDCK-MDR1. The method, then:
MDR1-MDCK cells obtained from the NIH (Rockville, Md., USA) are used between passage numbers 6-30. Cells are seeded onto Millipore Multiscreen Transwell plates at 3.4×10^5 cells/cm^2. The cells are cultured in DMEM and media is changed on day 3. On day 4 the permeability study is performed. Cell culture and assay incubations are carried out at 37° C. in an atmosphere of 5% CO2 with a relative humidity of 95%. On the day of the assay, the monolayers are prepared by rinsing both basolateral and apical surfaces twice with Hanks Balanced Salt Solution (HBSS) at the desired pH warmed to 37° C. Cells are then incubated with HBSS at the desired pH in both apical and basolateral compartments for 40 min to stabilise physiological parameters.
The dosing solutions are prepared by diluting test compound with assay buffer to give a final test compound concentration of 10 μM (final DMSO concentration of 1% v/v). The fluorescent integrity marker lucifer yellow is also included in the dosing solution. Analytical standards are prepared from test compound DMSO dilutions and transferred to buffer, maintaining a 1% v/v DMSO concentration.
For assessment of A-B permeability, HBSS is removed from the apical compartment and replaced with test compound dosing solution. The apical compartment insert is then placed into a companion plate containing fresh buffer (containing 1% v/v DMSO). For assessment of B-A permeability, FIBSS is removed from the companion plate and replaced with test compound dosing solution. Fresh buffer (containing 1% v/v DMSO) is added to the apical compartment insert, which is then placed into the companion plate. At 60 min the apical compartment inserts and the companion plates are separated and apical and basolateral samples diluted for analysis. Test compound permeability is assessed in duplicate. Compounds of known permeability characteristics are run as controls on each assay plate.
Test and control compounds are quantified by LC-MSMIS cassette analysis using an 8-point calibration with appropriate dilution of the samples. The starting concentration (C0) is determined from the dosing solution and the experimental recovery calculated from C0 and both apical and basolateral compartment concentrations. The integrity of the monolayer throughout the experiment is checked by monitoring lucifer yellow permeation using fluorimetric analysis. Lucifer yellow permeation is high if monolayers have been damaged.

In data set [1], `CS(=O)(=O)N1CCC(n2c(CN3C(=O)C4(CC4)c4ccc(F)cc43)nc3cc(Cl)ccc32)CC1` [Compound 33, 1′-{[5-Chloro-1-(1-methanesulfonylpiperidin-4-yl)-1H-1,3-benzodiazol-2-yl]methyl}-6′-fluoro-1′,2′-dihydrospiro[cyclopropane-1,3′-indole]-2′-one] had an IC50 of 0.49 nM and a 90% effect concentration (IC90) of 4.4 nM. For the same molecule, the half-life at 3 μM in data set [2] worked out at 3.1 h. In data set [3], this molecule came in with an apical-to-basolateral permeability (Papp A→B) at 60 min, 10 μM of 12.4 ×10⁻⁶ cm/s and a Papp B→A at 60 min, 10 μM of 35.5 ×10⁻⁶ cm/s.
Take `CCS(=O)(=O)N1CCC(n2c(CN3C(=O)C4(CC4)c4ccc(F)cc43)nc3cc(Cl)ccc32)CC1` [Compound 35, 1′-({5-Chloro-1-[1-(ethanesulfonyl)piperidin-4-yl]-1H-1,3-benzodiazol-2-yl}methyl)-6′-fluoro-1′,2′-dihydrospiro[cyclopropane-1,3′-indole]-2′-one]: in data set [1], the IC50 was determined as 0.87 nM and it took 5.2 nM to reach the 90% level (IC90). The half-life at 3 μM in data set [2] was 2.77 h. In data set [3], this molecule displayed an apparent permeability from apical to basolateral (Papp A→B) at 60 min, 10 μM of 12.7 ×10⁻⁶ cm/s and an apparent permeability from basolateral to apical (Papp B→A) at 60 min, 10 μM of 22.8 ×10⁻⁶ cm/s.
